Results as given in ChEMBL document CHEMBL4376803, “Recent Advances in the Exploration of Therapeutic Analogues of Gramicidin S, an Old but Still Potent Antimicrobial Peptide” (J Med Chem, 2019).
Converted amounts (≈) assume the structure as drawn. Values belong to the compound of their own block, whether it stands above or below them.

Assays:
Escherichia coli [1] = test: Antibacterial activity against Escherichia coli ATCC 25922 after overnight incubation; assay type: functional
Enterococcus faecalis [2] = test: Antibacterial activity against Enterococcus faecalis ATCC 29212 after overnight incubation; assay type: functional
Staphylococcus aureus [3] = test: Antibacterial activity against Staphylococcus aureus ATCC 29213 after overnight incubation; assay type: functional
Pseudomonas aeruginosa [4] = test: Antibacterial activity against Pseudomonas aeruginosa ATCC 27853 incubated for 24 hrs; assay type: functional; details: ATCC 27853, 24 h
Escherichia coli [5] = test: Antibacterial activity against Escherichia coli ATCC 25922 after 24 hrs; assay type: functional; details: ATCC 25922, 24 h
Enterococcus faecalis [6] = test: Antibacterial activity against Enterococcus faecalis ATCC 29212 after 24 hrs; assay type: functional; details: ATCC 29212, 24 h
Staphylococcus aureus [7] = test: Antibacterial activity against Staphylococcus aureus ATCC 29213 after 24 hrs; assay type: functional; details: ATCC 29213, 24 h
Staphylococcus aureus [8] = test: Antibacterial activity against methicillin-resistant Staphylococcus aureus NT 1110301981H-T034-PVL+ incubated for 24 hrs; assay type: functional
Escherichia coli [9] = test: Antibacterial activity against Escherichia coli K-12 strain W3110 incubated for 20 hrs by liquid microdilution method; assay type: functional; details: K-12 substr. W3110, 20 h
Staphylococcus aureus [10] = test: Antibacterial activity against Staphylococcus aureus 209P incubated for 20 hrs by liquid microdilution method; assay type: functional
Escherichia coli [11] = test: Antibacterial activity against Escherichia coli ATCC 25922 after 24 hrs by broth dilution method; assay type: functional; details: ATCC 25922, 24 h
Pseudomonas aeruginosa [12] = test: Antibacterial activity against Pseudomonas aeruginosa ATCC 19582 after 24 hrs by broth dilution method; assay type: functional; details: ATCC 19582, 24 h
Enterococcus faecalis [13] = test: Antibacterial activity against Enterococcus faecalis 1131 after 24 hrs by broth dilution method; assay type: functional; details: Enterococcus faecalis, 1131, 24 h
Staphylococcus aureus [14] = test: Antibacterial activity against Staphylococcus aureus 7323; assay type: functional
[15] = Hemolytic activity against RBC (unknown origin) at 100 ul after 4 hrs; assay type: ADME, cell-based, Erythrocyte; details: red blood cells (unknown origin)
[16] = Haemolytic activity in human erythrocytes incubated for 30 mins; assay type: ADME, cell-based, Erythrocyte
Escherichia coli [17] = test: Antibacterial activity against Escherichia coli NBRC 12734 after overnight incubation by microplate dilution method; assay type: functional
Pseudomonas aeruginosa [18] = test: Antibacterial activity against Pseudomonas aeruginosa NBRC 3080 after overnight incubation by microplate dilution method; assay type: functional
Bacillus subtilis = test: Antibacterial activity against Bacillus subtilis NBRC 3513 after overnight incubation by microplate dilution method; assay type: functional
Staphylococcus aureus [19] = test: Antibacterial activity against Staphylococcus aureus NBRC 12732 after overnight incubation by microplate dilution method; assay type: functional
Priestia megaterium = test: Antibacterial activity against Bacillus megaterium ATCC 19213 after overnight incubation by microplate dilution method; assay type: functional
[20] = Hemolytic activity in sheep RBC incubated for 30 mins; assay type: ADME, cell-based, Ovis aries, Erythrocyte; details: sheep red blood cells

MIC (Escherichia coli [1]): 64 µg/mL (≈ 47.3 µM)
MIC (Enterococcus faecalis [2]): 8 µg/mL (≈ 5.91 µM)
MIC (Staphylococcus aureus [3]): 8 µg/mL (≈ 5.91 µM)
SMILES: CC(C)C[C@@H]1NC(=O)[C@H](CCCN)NC(=O)[C@H](C(C)C)NC(=O)[C@@H]2CCCN2C(=O)[C@@H](Cc2ccc(OCc3ccccc3)cc2)NC(=O)[C@H](CC(C)C)NC(=O)[C@@H](CCCN)NC(=O)[C@H](C(C)C)NC(=O)[C@@H]2CCCN2C(=O)[C@@H](Cc2ccc(OCc3ccccc3)cc2)NC1=O

SMILES: CC(C)[C@@H]1NC(=O)[C@H](CCCN)NC(=O)[C@@H]2CCCN2C(=O)[C@@H](Cc2ccccc2)NC(=O)[C@H](CCCN)NC(=O)[C@@H](C(C)C)NC(=O)[C@H](CCCN)NC(=O)[C@@H]2CCCN2C(=O)[C@@H](Cc2ccccc2)NC(=O)[C@H](CCCN)NC1=O
MIC (Pseudomonas aeruginosa [4]): > 64 µg/mL
MIC (Escherichia coli [5]): > 64 µg/mL
MIC (Enterococcus faecalis [6]): > 64 µg/mL
MIC (Staphylococcus aureus [7]): > 64 µg/mL
MIC (Staphylococcus aureus [8]): > 64 µg/mL

MIC (Escherichia coli [9]): 16 µg/mL (≈ 10.9 µM)
MIC (Staphylococcus aureus [10]): 8 µg/mL (≈ 5.45 µM)
SMILES: CC(C)C[C@@H]1NC(=O)[C@H](CCCN)NC(=O)[C@H](C(C)C)NC(=O)[C@@H]2C[C@@H](N[C@@H](Cc3ccccc3)C(=O)O)CN2C(=O)[C@@H](Cc2ccccc2)NC(=O)[C@H](CC(C)C)NC(=O)[C@H](CCCN)NC(=O)[C@H](C(C)C)NC(=O)[C@@H]2C[C@@H](N[C@@H](Cc3ccccc3)C(=O)O)CN2C(=O)[C@@H](Cc2ccccc2)NC1=O

MIC (Pseudomonas aeruginosa [4]): > 64 µg/mL
MIC (Escherichia coli [5]): > 64 µg/mL
MIC (Enterococcus faecalis [6]): > 64 µg/mL
MIC (Staphylococcus aureus [7]): > 64 µg/mL
SMILES: NCCC[C@@H]1NC(=O)[C@H](C23CC4CC(CC(C4)C2)C3)NC(=O)[C@@H]2CCCN2C(=O)[C@@H](Cc2ccccc2)NC(=O)[C@H](C23CC4CC(CC(C4)C2)C3)NC(=O)[C@H](CCCN)NC(=O)[C@H](C23CC4CC(CC(C4)C2)C3)NC(=O)[C@@H]2CCCN2C(=O)[C@@H](Cc2ccccc2)NC(=O)[C@H](C23CC4CC(CC(C4)C2)C3)NC1=O

MIC (Escherichia coli [11]): 32 µg/mL (≈ 28.3 µM)
MIC (Pseudomonas aeruginosa [12]): > 64 µg/mL
MIC (Enterococcus faecalis [13]): 64 µg/mL (≈ 56.5 µM)
MIC (Staphylococcus aureus [14]): 16 µg/mL (≈ 14.1 µM)
SMILES: CC(C)C[C@@H]1NC(=O)[C@H](CCCN)NC(=O)[C@H](C(C)C)NC(=O)[C@@H]2CCCN2C(=O)[C@@H](Cc2c[nH]nn2)NC(=O)[C@H](CC(C)C)NC(=O)[C@@H](CCCN)NC(=O)[C@H](C(C)C)NC(=O)[C@@H]2CCCN2C(=O)[C@@H](Cc2ccccc2)NC1=O
HC50 at 4 h [15]: 45 to 55 µg/mL

MIC (Escherichia coli [1]): 64 µg/mL (≈ 54.5 µM)
MIC (Enterococcus faecalis [2]): 32 µg/mL (≈ 27.3 µM)
MIC (Staphylococcus aureus [3]): 32 µg/mL (≈ 27.3 µM)
SMILES: CC(C)C[C@@H]1NC(=O)[C@H](CCCN)NC(=O)[C@H](C(C)C)NC(=O)[C@@H]2CCCN2C(=O)[C@@H](Cc2ccc(O)cc2)NC(=O)[C@H](CC(C)C)NC(=O)[C@@H](CCCN)NC(=O)[C@H](C(C)C)NC(=O)[C@@H]2CCCN2C(=O)[C@@H](Cc2ccc(O)cc2)NC1=O

SMILES: NCCC[C@@H]1NC(=O)[C@H](C23CC4CC(CC(C4)C2)C3)NC(=O)[C@H](CCCN)NC(=O)[C@@H]2CCCN2C(=O)[C@@H](Cc2ccccc2)NC(=O)[C@H](CCCN)NC(=O)[C@H](C23CC4CC(CC(C4)C2)C3)NC(=O)[C@H](CCCN)NC(=O)[C@@H]2CCCN2C(=O)[C@@H](Cc2ccccc2)NC1=O
MIC (Pseudomonas aeruginosa [4]): 16 µg/mL (≈ 12.1 µM)
MIC (Escherichia coli [5]): 8 µg/mL (≈ 6.03 µM)
MIC (Enterococcus faecalis [6]): 8 µg/mL (≈ 6.03 µM)
MIC (Staphylococcus aureus [7]): 8 µg/mL (≈ 6.03 µM)
MIC (Staphylococcus aureus [8]): 8 µg/mL (≈ 6.03 µM)

SMILES: CC(C)C[C@@H]1NC(=O)[C@H](CCCN)NC(=O)[C@H](C(C)C)NC(=O)[C@@H]2C[C@@H](N[C@@H](CCCCN)C(=O)O)CN2C(=O)[C@@H](Cc2ccccc2)NC(=O)[C@H](CC(C)C)NC(=O)[C@H](CCCN)NC(=O)[C@H](C(C)C)NC(=O)[C@@H]2C[C@@H](N[C@@H](CCCCN)C(=O)O)CN2C(=O)[C@@H](Cc2ccccc2)NC1=O
HC50 at 0.5 h [16]: > 100 µg/mL

MIC (Escherichia coli [17]): 25 µg/mL (≈ 20.8 µM)
MIC (Pseudomonas aeruginosa [18]): 50 µg/mL (≈ 41.5 µM)
MIC (Bacillus subtilis): 6.25 µg/mL (≈ 5.19 µM)
MIC (Staphylococcus aureus [19]): 3.13 µg/mL (≈ 2.6 µM)
MIC (Priestia megaterium): 3.13 µg/mL (≈ 2.6 µM)
SMILES: CC(C)C[C@@H]1NC(=O)[C@H](CCCN)NC(=O)[C@H](C(C)C)NC(=O)[C@H](CCCCN)NC(=O)[C@@H](Cc2ccccc2)NC(=O)[C@H](CC(C)C)NC(=O)[C@@H](CCCN)NC(=O)[C@H](C(C)C)NC(=O)[C@H](CCCCN)NC(=O)[C@@H](Cc2ccccc2)NC1=O
HC50 at 0.5 h [20]: > 200 µg/mL
